22 compounds from patent publication US5547975A, “Benzopyranopyrazolyl derivatives for the treatment of inflammation” (priority 1994, dated 1996) can be followed below.

The structures appear in SMILES notation.

One assay has as its target T1, Human COX I (Homo sapiens, UniProt P23219).
T1 construct: made in house; host or cells: SF9 insect cells, recombinant baculovirus (transfer vector pVL1393)
The assay can be described thus: Evaluation of COX I activity in vitro (recombinant enzyme, PGE2 ELISA). The assay is classed as biochemical. The note with it: 10 μM arachidonic acid, pre-incubation 10-20 minutes, pH 8.0; read-out: Human COX I ID50. From the text: (§1) Evaluation of COX I and COX II activity in vitro
(§2) a. Preparation of recombinant COX baculoviruses
(§3) A 2.0 kb fragment containing the coding region of either human or murine COX-I or human or murine COX-II was cloned into a BamH1 site of the baculovirus transfer vector pVL1393 (Invitrogen) to generate the baculovirus transfer vectors for COX-I and COX-II in a manner similar to the method of D. R. O'Reilly et al (Baculovirus Expression Vectors: A Laboratory Manual (1992)). Recombinant baculoviruses were isolated by transfecting 4 μg of baculovirus transfer vector DNA into SF9 insect cells ([…]) along with 200 ng of linearized baculovirus plasmid DNA by the calcium phosphate method. See M. D. Summers and G. E. Smith, A Manual of Methods for Baculovirus Vectors and Insect Cell Culture Procedures, Texas Agric. Exp. Station Bull. 1555 (1987). Recombinant viruses were purified by three rounds of plaque purification and high titer (10E7-10E8 pfu/ml) stocks of virus were prepared. For large scale production, SF9 insect cells were infected in 10 liter fermentors (0.5×10^6 /ml) with the recombinant baculovirus stock such that the multiplicity of infection was 0.1. After 72 hours the cells were centrifuged and the cell pellet homogenized in Tris/Sucrose (50 mM: 25%, pH 8.0) containing 1% 3-[(3-cholamidopropyl)dimethylammonio]-1-propanesulfonate (CHAPS). The homogenate was centrifuged at 10,000'G for 30 minutes, and the resultant supernatant was stored at -80° C. before being assayed for COX activity.
(§4) b. Assay for COX I and COX II activity:
(§5) COX activity was assayed as PGE2 formed/μg protein/time using an ELISA to detect the prostaglandin released. CHAPS-solubilized insect cell membranes containing the appropriate COX enzyme were incubated in a potassium phosphate buffer (50 mM, pH 8.0) containing epinephrine, phenol, and heme with the addition of arachidonic acid (10 μM). Compounds were pre-incubated with the enzyme for 10-20 minutes prior to the addition of arachidonic acid. Any reaction between the arachidonic acid and the enzyme was stopped after ten minutes at 37° C./room temperature by transferring 40 μl of reaction mix into 160 μl ELISA buffer and 25 μM indomethacin. The PGE2 formed was measured by standard ELISA technology (Cayman Chemical).
On the technique in general: An ELISA detects its analyte on a solid surface through an enzyme-linked reagent.

For a further assay, the target named is T2, Human COX II (Homo sapiens, UniProt P35354).
T2 construct: made in house; host or cells: SF9 insect cells, recombinant baculovirus (transfer vector pVL1393)
T2 sequence (P35354 18-604): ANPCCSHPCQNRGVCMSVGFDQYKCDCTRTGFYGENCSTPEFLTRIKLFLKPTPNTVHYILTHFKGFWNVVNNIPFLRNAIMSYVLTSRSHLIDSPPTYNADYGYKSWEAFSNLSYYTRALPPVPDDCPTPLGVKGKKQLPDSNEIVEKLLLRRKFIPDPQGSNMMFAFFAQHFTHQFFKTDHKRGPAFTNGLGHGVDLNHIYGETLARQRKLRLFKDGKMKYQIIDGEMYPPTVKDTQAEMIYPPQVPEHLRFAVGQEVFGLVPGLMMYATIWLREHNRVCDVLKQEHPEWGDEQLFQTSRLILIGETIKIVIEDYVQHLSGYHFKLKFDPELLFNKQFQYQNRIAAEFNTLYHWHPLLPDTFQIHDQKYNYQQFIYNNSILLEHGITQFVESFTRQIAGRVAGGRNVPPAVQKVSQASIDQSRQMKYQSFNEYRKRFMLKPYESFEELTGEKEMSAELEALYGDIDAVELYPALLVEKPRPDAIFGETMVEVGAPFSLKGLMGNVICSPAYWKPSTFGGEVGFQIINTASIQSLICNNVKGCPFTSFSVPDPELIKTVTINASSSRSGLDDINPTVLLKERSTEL
The assay can be described thus: Evaluation of COX II activity in vitro (recombinant enzyme, PGE2 ELISA). The assay is classed as biochemical. Conditions: 10 μM arachidonic acid, pre-incubation 10-20 minutes, pH 8.0; read-out: Human COX II ID50. On the procedure: as §1
The COX II inhibition activity of the compounds of this invention illustrated in the Examples was determined by the following methods.
as §2, §3, §4, §5

T1 sequence (P23219 24-599): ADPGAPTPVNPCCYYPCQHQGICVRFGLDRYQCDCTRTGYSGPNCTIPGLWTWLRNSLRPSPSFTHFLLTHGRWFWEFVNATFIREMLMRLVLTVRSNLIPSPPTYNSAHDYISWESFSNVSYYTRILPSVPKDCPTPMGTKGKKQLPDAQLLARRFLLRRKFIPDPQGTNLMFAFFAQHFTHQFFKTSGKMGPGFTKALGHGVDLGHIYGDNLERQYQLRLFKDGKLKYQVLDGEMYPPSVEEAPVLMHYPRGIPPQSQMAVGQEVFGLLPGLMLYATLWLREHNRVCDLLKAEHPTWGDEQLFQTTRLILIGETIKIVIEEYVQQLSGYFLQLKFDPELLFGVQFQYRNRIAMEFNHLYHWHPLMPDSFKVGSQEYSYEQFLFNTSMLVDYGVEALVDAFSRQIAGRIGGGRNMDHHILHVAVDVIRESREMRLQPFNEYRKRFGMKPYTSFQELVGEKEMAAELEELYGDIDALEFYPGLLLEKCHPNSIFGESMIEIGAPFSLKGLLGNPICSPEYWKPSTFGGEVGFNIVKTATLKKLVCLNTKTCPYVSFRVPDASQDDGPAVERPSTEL

For `NS(=O)(=O)c1ccc(-n2nc(C(F)(F)F)c3c2-c2cc(F)ccc2OC3)cc1` [Example 5, 4-[1,4-Dihydro-8-fluoro-3-(trifluoromethyl)-[1]benzopyrano[4,3-c]pyrazol-1-yl]benzenesulfonamide], the IC50 on Human COX I was found to be 24.4 µM; on Human COX II it was 4.8 µM.
For `NS(=O)(=O)c1ccc(-n2nc(C(F)(F)F)c3c2-c2ccccc2OC3)cc1` [Example 3, 4-[1,4-Dihydro-3-(trifluoromethyl)-[1]benzopyrano[4,3-c]pyrazol-1-yl]benzenesulfonamide], the IC50 on Human COX II amounted to 1.3 µM.
In the case of `NS(=O)(=O)c1ccc(-n2nc(C(F)(F)F)c3c2-c2ccc(Cl)c(Cl)c2SC3)cc1` [Example 9, 4-[6,7-Dichloro-1,4-dihydro-3-(trifluoromethyl)-[1]benzothiopyrano[4,3-c]pyrazol-1-yl]benzenesulfonamide], the IC50 was more than 100 µM at Human COX I and 48.2 µM at Human COX II.
As for `COC(=O)c1nn(-c2ccc(S(N)(=O)=O)cc2)c2c1SCc1cc(F)ccc1-2` [Example 29, methyl[1-(4-aminosulfonylphenyl)-1,5-dihydro-7-fluoro-[2]benzothiopyrano[4,3-c]pyrazol-3-yl]carboxylate], the figures for the IC50 at Human COX I and at Human COX II were 13.2 µM and 0.8 µM, respectively.
The corresponding values for `NS(=O)(=O)c1ccc(-n2nc(C(F)(F)F)c3c2-c2ccc(F)cc2SC3)cc1` [Example 10, 4-[1,4-Dihydro-7-fluoro-3-(trifluoromethyl)-[1]benzothiopyrano[4,3-c]pyrazol-1-yl]benzenesulfonamide] are 6.2 µM and less than 0.1 µM.
For `CC(C)c1cccc2c1SCc1c(C(F)(F)F)nn(-c3ccc(S(N)(=O)=O)cc3)c1-2` [Example 11, 4-[1,4-Dihydro-6-isopropyl-3-(trifluoromethyl)-[1]benzothiopyrano[4,3-c]pyrazol-1-yl]benzenesulfonamide], the IC50 on Human COX I is more than 100 µM; at Human COX II, 52 µM.
As for `Cc1ccc2c(c1)SCc1c(C(F)(F)F)nn(-c3ccc(S(N)(=O)=O)cc3)c1-2` [Example 14, 4-[1,4-Dihydro-7-methyl-3-(trifluoromethyl)-[1]benzothiopyrano[4,3-c]pyrazol-1-yl]benzenesulfonamide], the IC50 at Human COX I worked out at 4.6 µM; at Human COX II, 0.2 µM.
The matching figures for `COc1ccc2c(c1F)C[S+]([O-])c1c(C(F)(F)F)nn(-c3ccc(S(N)(=O)=O)cc3)c1-2` (stereo not shown) [Example 28, 4-[1,5-dihydro-6-fluoro-7-methoxy-3-(trifluoromethyl)-[2]benzothiopyrano-S-oxide[4,3-c]pyrazol-1-yl]benzenesulfonamide]: more than 100 µM and 1.2 µM.
Consider `NS(=O)(=O)c1ccc(-n2nc(C(F)(F)F)c3oc4ccccc4c32)cc1` [Example 6, 4-[3-(Trifluoromethyl)-1H-benzofuro[3,2-c]pyrazol-1-yl]benzenesulfonamide], for which the figures for the IC50 on Human COX I and at Human COX II were 11.1 µM and 23.5 µM, respectively.
With `COc1ccc2c(c1F)CSc1c(C(F)F)nn(-c3ccc(S(N)(=O)=O)cc3)c1-2` [Example 25, 4-[3-(difluoromethyl)-1,5-dihydro-6-fluoro-7-methoxy-[2]benzothiopyrano[4,3-c]pyrazol-1-yl]benzenesulfonamide], the IC50 at Human COX I is more than 100 µM; on Human COX II, less than 0.1 µM.
With `COc1ccc2c(c1)CSc1c(C(F)(F)F)nn(-c3ccc(S(N)(=O)=O)cc3)c1-2` [Example 20, 4-[1,5-Dihydro-7-methoxy-3-(trifluoromethyl)-[2]benzothiopyrano[4,3-c]pyrazol-1-yl]benzenesulfonamide], the IC50 at Human COX I and at Human COX II was less than 0.1 µM each time.
In the case of `Cc1ccc2c(c1)CSc1c(C(F)(F)F)nn(-c3ccc(S(N)(=O)=O)cc3)c1-2` [Example 17, 4-[1,5-Dihydro-7-methyl-3-(trifluoromethyl)-[2]benzothiopyrano[4,3-c]pyrazol-1-yl]benzenesulfonamide], the IC50 is 0.8 µM on Human COX I and less than 0.1 µM at Human COX II.
Consider `COc1ccc2c(c1F)CSCc1c(C(F)(F)F)nn(-c3ccc(S(N)(=O)=O)cc3)c1-2` [Example 30, 4-[4,6-dihydro-7-fluoro-8-methoxy-3-(trifluoromethyl)-[2]benzothiepino[5,4-c]pyrazol-1-yl]benzenesulfonamide], for which the IC50 is 73.4 µM at Human COX I and 2.2 µM on Human COX II.
For `Cc1ccc2c(c1)CSc1c(C(F)(F)F)nn(-c3ccc(S(C)(=O)=O)cc3)c1-2` [Example 18, 1,5-Dihydro-1-[4-(methylsulfonyl)phenyl]-7-methyl-3-(trifluoromethyl)-[2]benzothiopyrano[4,3-c]pyrazole], the values for the IC50 at Human COX I and at Human COX II were 3.7 µM and less than 0.1 µM, respectively.
On to `NS(=O)(=O)c1ccc(-n2nc(C(F)(F)F)c3c2-c2ccc(Cl)cc2SC3)cc1` [Example 15, 4-[7-Chloro-1,4-dihydro-3-(trifluoromethyl)-[1]benzothiopyrano[4,3-c]pyrazol-1-yl]benzenesulfonamide], for which the IC50 on Human COX I is 0.3 µM; at Human COX II, less than 0.1 µM.
For the compound `COc1cc2c(cc1OC)-c1c(c(C(F)(F)F)nn1-c1ccc(S(N)(=O)=O)cc1)CS2` [Example 12, 4-[1,4-Dihydro-7,8-dimethoxy-3-(trifluoromethyl)-[1]benzothiopyrano[4,3-c]pyrazol-1-yl]benzenesulfonamide], the IC50 on Human COX I is more than 100 µM; at Human COX II, 95 µM.
Consider `COc1ccc2c(c1F)CSc1c(C(F)(F)F)nn(-c3ccc(S(N)(=O)=O)cc3)c1-2` [Example 1, 4-[1,5-Dihydro-6-fluoro-7-methoxy-3-(trifluoromethyl)-[2]benzothiopyrano[4,3-c]pyrazol-1-yl]benzenesulfonamide], for which the IC50 on Human COX I was 2.7 µM; on Human COX II, less than 0.1 µM.
As to `NS(=O)(=O)c1ccc(-n2nc(C(F)(F)F)c3c2-c2ccccc2CS3)cc1` [Example 16, 4-[1,5-Dihydro-3-(trifluoromethyl)-[2]benzothiopyrano[4,3-c]pyrazol-1-yl]benzenesulfonamide], the IC50 at Human COX II was less than 0.1 µM.
For the compound `N#Cc1nn(-c2ccc(S(N)(=O)=O)cc2)c2c1CSc1ccccc1-2` [Example 22, 1-[4-(Aminosulfonyl)phenyl]-1,4-dihydro-[1]benzothiopyrano[4,3-c]pyrazol-3-carbonitrile], the IC50 is 51 µM on Human COX I and 3.5 µM on Human COX II.
The corresponding values for `NS(=O)(=O)c1ccc(-n2nc(C(F)(F)F)c3c2-c2ccc(Cl)cc2CS3)cc1` [Example 19, 4-[7-Chloro-1,5-dihydro-3-(trifluoromethyl)-[2]benzothiopyrano[4,3-c]pyrazol-1-yl]benzenesulfonamide] are 0.3 µM and less than 0.1 µM.
For the compound `COC(=O)c1nn(-c2ccc(S(N)(=O)=O)cc2)c2c1CSc1ccccc1-2` [Example 8, Methyl[1-[(4-aminosulfonyl)phenyl]-1,4-dihydro-[1]benzothiopyrano[4,3-c]pyrazol-3-yl]carboxylate], the IC50 at Human COX II was 0.5 µM.
Turning to `COC(=O)c1nn(-c2ccc(S(N)(=O)=O)cc2)c2c1COc1ccccc1-2` [Example 4, Methyl[1-[4-(aminosulfonyl)phenyl]-1,4-dihydro-[1]benzopyrano[4,3-c]pyrazol-3-yl]carboxylate], at Human COX II, the IC50 turned out to be 0.5 µM.
